From ChEMBL document CHEMBL1132848, “1H-pyrazole-1-carboxamidines: new inhibitors of nitric oxide synthase” (Bioorg Med Chem Lett, 2000)

Legend:
Nitric oxide synthase 3 = target: T1, Nitric oxide synthase 3 (Bos taurus, UniProt P29473); assay: Inhibition against endothelial Nitric Oxide Synthase(eNOS)
T1 sequence (P29473 whole entry): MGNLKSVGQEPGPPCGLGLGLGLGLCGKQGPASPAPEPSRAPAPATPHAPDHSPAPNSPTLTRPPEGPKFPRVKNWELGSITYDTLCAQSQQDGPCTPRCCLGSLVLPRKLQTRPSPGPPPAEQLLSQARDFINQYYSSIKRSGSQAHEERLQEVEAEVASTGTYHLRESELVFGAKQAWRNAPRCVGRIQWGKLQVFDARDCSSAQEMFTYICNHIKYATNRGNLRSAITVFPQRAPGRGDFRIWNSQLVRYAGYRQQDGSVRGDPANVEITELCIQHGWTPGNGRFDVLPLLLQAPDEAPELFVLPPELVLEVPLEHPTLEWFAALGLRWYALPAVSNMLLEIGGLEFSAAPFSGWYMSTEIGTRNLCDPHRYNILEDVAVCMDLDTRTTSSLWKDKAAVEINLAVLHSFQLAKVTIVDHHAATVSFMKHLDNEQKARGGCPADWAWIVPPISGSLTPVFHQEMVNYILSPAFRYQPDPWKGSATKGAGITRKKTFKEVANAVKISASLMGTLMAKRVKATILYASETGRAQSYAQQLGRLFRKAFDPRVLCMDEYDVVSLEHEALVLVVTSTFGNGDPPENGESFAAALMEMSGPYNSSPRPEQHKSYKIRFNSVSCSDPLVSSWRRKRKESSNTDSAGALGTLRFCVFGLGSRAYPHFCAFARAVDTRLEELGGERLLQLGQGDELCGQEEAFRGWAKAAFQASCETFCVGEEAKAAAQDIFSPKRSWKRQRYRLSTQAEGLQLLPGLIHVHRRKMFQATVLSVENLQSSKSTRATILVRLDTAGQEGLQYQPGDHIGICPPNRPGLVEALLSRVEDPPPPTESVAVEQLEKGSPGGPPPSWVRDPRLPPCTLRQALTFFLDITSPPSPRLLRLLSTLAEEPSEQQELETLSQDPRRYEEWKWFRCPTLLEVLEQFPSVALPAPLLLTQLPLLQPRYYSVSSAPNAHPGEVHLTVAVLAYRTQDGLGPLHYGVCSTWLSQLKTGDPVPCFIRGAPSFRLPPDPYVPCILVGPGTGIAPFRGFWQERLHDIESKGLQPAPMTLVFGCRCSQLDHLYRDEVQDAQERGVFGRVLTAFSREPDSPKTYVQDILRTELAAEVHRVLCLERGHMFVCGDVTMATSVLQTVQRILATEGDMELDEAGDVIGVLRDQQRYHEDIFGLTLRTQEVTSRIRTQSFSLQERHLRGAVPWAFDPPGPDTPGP

[1] = Selectivity for neuronal(nNOS) and induced Nitric Oxide Synthase(iNOS); set-up: reference not given here
[2] = Selectivity for neuronal (nNOS) and endothelial Nitric Oxide Synthase(eNOS); set-up: reference not given here
Nitric oxide synthase 1 [3] = target: T2, Nitric oxide synthase 1 (Rattus norvegicus, UniProt P29476); assay: Inhibition against neuronal Nitric Oxide Synthase(nNOS)
T2 sequence (P29476 whole entry): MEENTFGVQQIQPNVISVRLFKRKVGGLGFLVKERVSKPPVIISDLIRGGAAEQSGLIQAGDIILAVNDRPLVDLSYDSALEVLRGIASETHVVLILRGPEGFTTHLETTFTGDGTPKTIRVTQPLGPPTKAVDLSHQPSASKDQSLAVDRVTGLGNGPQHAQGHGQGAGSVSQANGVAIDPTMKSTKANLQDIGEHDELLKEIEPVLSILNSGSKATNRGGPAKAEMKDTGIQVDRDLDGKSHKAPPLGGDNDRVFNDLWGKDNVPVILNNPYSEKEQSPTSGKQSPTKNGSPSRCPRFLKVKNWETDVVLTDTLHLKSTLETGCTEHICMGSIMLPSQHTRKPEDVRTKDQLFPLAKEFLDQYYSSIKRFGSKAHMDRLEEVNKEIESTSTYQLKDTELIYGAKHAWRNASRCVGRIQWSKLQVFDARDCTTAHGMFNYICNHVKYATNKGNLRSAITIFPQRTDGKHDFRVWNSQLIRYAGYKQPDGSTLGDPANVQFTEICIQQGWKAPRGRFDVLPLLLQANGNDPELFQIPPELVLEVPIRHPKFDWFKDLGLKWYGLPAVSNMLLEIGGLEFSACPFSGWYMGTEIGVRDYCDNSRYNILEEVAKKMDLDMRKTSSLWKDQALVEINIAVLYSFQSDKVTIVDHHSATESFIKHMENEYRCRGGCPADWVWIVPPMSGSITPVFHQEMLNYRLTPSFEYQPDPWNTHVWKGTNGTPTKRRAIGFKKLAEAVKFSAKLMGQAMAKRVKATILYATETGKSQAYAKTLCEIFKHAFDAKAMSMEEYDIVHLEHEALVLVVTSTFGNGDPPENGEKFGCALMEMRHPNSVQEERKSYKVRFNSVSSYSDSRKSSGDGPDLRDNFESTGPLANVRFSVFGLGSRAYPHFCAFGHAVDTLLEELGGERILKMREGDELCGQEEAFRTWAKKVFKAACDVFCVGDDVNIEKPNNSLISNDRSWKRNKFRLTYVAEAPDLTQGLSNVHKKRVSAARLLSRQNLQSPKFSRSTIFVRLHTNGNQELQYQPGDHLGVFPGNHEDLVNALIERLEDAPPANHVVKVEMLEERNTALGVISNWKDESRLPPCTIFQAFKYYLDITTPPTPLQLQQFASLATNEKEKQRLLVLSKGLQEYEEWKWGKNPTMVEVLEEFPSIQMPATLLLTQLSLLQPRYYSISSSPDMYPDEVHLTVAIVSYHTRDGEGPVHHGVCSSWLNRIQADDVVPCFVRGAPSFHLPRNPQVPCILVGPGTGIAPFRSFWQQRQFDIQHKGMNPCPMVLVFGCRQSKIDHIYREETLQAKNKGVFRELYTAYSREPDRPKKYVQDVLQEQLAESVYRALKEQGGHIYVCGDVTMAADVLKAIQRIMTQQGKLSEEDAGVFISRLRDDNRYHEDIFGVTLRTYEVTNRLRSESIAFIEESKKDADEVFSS

[4] = target: T3, Nitric oxide synthase, inducible (Mus musculus, UniProt P29477); assay: Inhibition against induced Nitric Oxide Synthase(iNOS)
T3 sequence (P29477 whole entry): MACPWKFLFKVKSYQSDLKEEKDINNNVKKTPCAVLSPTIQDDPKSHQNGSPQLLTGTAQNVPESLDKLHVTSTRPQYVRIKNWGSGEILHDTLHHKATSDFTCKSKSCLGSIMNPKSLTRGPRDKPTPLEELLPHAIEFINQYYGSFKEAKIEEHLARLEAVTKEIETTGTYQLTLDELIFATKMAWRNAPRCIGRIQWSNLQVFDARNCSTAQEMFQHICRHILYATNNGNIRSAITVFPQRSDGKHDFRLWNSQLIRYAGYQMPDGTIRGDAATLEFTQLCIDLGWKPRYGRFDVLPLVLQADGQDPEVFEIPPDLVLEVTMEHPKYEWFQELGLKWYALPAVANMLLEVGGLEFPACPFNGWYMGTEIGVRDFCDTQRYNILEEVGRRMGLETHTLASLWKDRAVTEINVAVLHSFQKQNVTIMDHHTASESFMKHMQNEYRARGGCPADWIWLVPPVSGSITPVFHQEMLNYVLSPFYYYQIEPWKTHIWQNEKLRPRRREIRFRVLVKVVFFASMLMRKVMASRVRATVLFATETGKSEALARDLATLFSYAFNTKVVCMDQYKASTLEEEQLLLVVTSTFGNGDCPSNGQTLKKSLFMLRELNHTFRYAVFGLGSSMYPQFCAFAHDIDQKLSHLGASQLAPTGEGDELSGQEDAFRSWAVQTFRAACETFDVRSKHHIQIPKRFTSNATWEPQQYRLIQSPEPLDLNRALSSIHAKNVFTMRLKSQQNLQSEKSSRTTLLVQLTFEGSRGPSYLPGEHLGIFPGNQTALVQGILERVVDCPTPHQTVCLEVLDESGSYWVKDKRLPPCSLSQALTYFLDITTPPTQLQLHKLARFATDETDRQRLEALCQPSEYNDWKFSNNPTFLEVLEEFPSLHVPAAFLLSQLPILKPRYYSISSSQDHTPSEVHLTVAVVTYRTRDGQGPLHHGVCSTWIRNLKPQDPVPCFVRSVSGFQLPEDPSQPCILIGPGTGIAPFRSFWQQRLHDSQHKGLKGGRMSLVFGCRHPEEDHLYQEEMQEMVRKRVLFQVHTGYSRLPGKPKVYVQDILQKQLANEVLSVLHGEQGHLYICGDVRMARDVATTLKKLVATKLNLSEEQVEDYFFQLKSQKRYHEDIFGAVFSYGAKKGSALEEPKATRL

[5] = target: Nitric oxide synthase 1 (Rattus norvegicus) (UniProt P29476); assay: (§1) Time dependent inhibition against neuronal Nitric Oxide Synthase(nNOS)
Sequence of Nitric oxide synthase 1 (Rattus norvegicus) (P29476 whole entry): as the sequence (P29476 whole entry) above

Nitric oxide synthase 1 [6] = target: T2, Nitric oxide synthase 1; assay: as §1

| SMILES | Ki (Nitric oxide synthase 3) | Ratio [1] | Ratio [2] | Ki (Nitric oxide synthase 1 [3]) | Ki [4] | K inact [5] | Ki (Nitric oxide synthase 1 [6]) |
| --- | --- | --- | --- | --- | --- | --- | --- |
| N=C(NC1CC1)n1cccn1 | 120 µM | 1.6 | 2.4 | 50 µM | 80 µM |  |  |
| N=C(NCC1CC1)n1cccn1 | 80 µM | 2.2 | 8 | 10 µM | 22 µM |  |  |
| NCCCC/N=C(\N)n1cccn1 | 460 µM | 8.3 | 77 | 6 µM | 50 µM |  |  |
| N=C(Nc1cccc(CN)c1)c1ccco1 |  |  |  |  | 0.16 µM |  |  |
| N=C(Nc1cccc(CN)c1)n1cccn1 | 200 µM | 6 | 100 | 2 µM | 12 µM |  |  |
| N=C(Nc1cccc(CN)c1)c1cccs1 | 0.46 µM |  |  |  | 0.12 µM |  |  |
| CC(C)C/N=C(\N)n1cccn1 | 180 µM | 3.3 | 4 | 45 µM | 150 µM |  |  |
| Cc1ccn(C(=N)N)n1 | 100 µM | 1.1 | 13 | 8 µM | 9 µM |  |  |
| Cc1cnn(C(=N)N)c1 | 190 µM | 0.3 | 16 | 12 µM | 3 µM |  |  |
| CCCC/N=C(\N)NCCC | 650 µM | 1.1 | 0.9 | 700 µM | 780 µM |  |  |
| CCCC/N=C(\N)n1cccn1 | 25 µM | 1 | 1.8 | 14 µM | 14 µM |  |  |
| N=C(N)n1cccn1 | 0.5 µM | 1.8 | 1.3 | 0.4 µM | 0.7 µM |  |  |
| Cc1cc(C)n(C(=N)N)n1 | 1500 µM | 2.1 | 4.3 | 350 µM | 750 µM |  |  |
| CCC/N=C(\N)n1cccn1 | 9 µM | 1.7 | 3 | 3 µM | 5 µM | 0.024 min⁻¹ | 33 µM |
| CCCCC/N=C(\N)n1cccn1 | 700 µM | 0.8 | 14 | 60 µM | 50 µM |  |  |
